22 molecules from US20240109930A1, “TRIAZOLYL-METHYL SUBSTITUTED ALPHA-D-GALACTOPYRANOSIDE DERIVATIVES” (Idorsia Pharmaceuticals Ltd, priority 2021, published 2024) can be followed below.

One assay deals with human Gal-1 (hGal-1) (Homo sapiens, UniProt P09382, C131S/C17S/C43S/C61S/C89S). The assay is described as follows: Competitive binding assay: biotinylated hGal-1 binding to microplate-adsorbed asialofetuin (ASF). The following applies: IC50 values from several measurements given as geomean. An outline of the steps: (§1)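 Biotinylated hGal-3 or hGal-1 (preferably cysteine-free Cys→Ser mutant), 300–1000 ng/mL, competes with compound for ASF-coated wells for 3 h at 4 °C. Bound lectin detected with streptavidin-peroxidase (80 ng/mL, 1 h, 4 °C) and ABTS by absorbance; IC50 reported as geomean of several runs.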

The next assay addresses human Gal-3 (hGal-3) (Homo sapiens (Human), UniProt P17931). Nature of the assay: Competitive binding assay: biotinylated hGal-3 binding to microplate-adsorbed asialofetuin (ASF). Conditions: IC50 values from several measurements given as geomean. An outline of the steps:
as §1

Chain of human Gal-3 (hGal-3) (P17931 whole entry): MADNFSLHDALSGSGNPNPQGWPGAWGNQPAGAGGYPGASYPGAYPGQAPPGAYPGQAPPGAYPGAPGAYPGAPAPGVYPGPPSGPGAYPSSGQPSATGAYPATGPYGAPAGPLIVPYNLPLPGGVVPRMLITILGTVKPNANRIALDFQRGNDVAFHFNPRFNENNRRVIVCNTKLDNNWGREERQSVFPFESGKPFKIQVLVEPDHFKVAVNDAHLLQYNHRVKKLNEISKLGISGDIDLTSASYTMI

What is called IC50 is the concentration that inhibits the measured activity by half. A lower IC50 goes with greater potency. As to `CO[C@@H]1[C@@H](n2cc(-c3ccc(C)c(F)c3F)nn2)[C@@H](O)[C@@H](CO)O[C@@H]1Cn1cc(C(C)(C)O)nn1` [Ex 1.2.34., (2R,3R,4S,5R,6R)-4-(4-(2,3-Difluoro-4-methylphenyl)-1H-1,2,3-triazol-1-yl)-2-(hydroxymethyl)-6-((4-(2-hydroxypropan-2-yl)-1H-1,2,3-triazol-1-yl)methyl)-5-methoxytetrahydro-2H-pyran-3-ol], the IC50 worked out at 5.33 µM on human Gal-1 (hGal-1) and 0.08 µM on human Gal-3 (hGal-3).
Turning to `CO[C@@H]1[C@@H](n2cc(-c3ccc(Cl)c(F)c3F)nn2)[C@@H](O)[C@@H](CO)O[C@@H]1Cn1cc([C@H]2C[C@@H](N)C2)nn1` [Ex 2.2.87.], the IC50 on human Gal-1 (hGal-1) is 7.15 µM; on human Gal-3 (hGal-3), 0.12 µM.
For `CO[C@@H]1[C@@H](n2cc(-c3ccc(F)c(F)c3F)nn2)[C@@H](O)[C@@H](CO)O[C@@H]1Cn1cc(C2(C)CCC2)nn1` [Ex 3.2.13.] the same measures were 0.67 µM and 0.08 µM.
The like results for `CO[C@@H]1[C@@H](n2cc(-c3ccc(Cl)c(F)c3F)nn2)[C@@H](O)[C@@H](CO)O[C@@H]1Cn1cc(C2(C)CCC2)nn1` [Ex 2.2.13.] were, in that order, 1.51 µM and 0.03 µM.
The like results for `CO[C@@H]1[C@@H](n2cc(-c3ccc(Br)c(F)c3F)nn2)[C@@H](O)[C@@H](CO)O[C@@H]1Cc1cn([C@H]2CCCC2(F)F)nn1` [Example 4.1.64.B, (2R,3R,4S,5R,6R)-4-(4-(4-bromo-2,3-difluorophenyl)-1H-1,2,3-triazol-1-yl)-6-((1-((S)-2,2-difluorocyclopentyl)-1H-1,2,3-triazol-4-yl)methyl)-2-(hydroxymethyl)-5-methoxytetrahydro-2H-pyran-3-ol] were, in that order, 1.81 µM and 0.05 µM.
On to `CO[C@@H]1[C@@H](n2cc(-c3ccc(C)c(F)c3F)nn2)[C@@H](O)[C@@H](CO)O[C@@H]1Cc1cn([C@@H]2COCC[C@H]2O)nn1` [Ex 1.1.1.], for which the figures for the IC50 at human Gal-1 (hGal-1) and at human Gal-3 (hGal-3) were 2.61 µM and 0.05 µM, respectively.
As for `CO[C@@H]1[C@@H](n2cc(-c3ccc(Br)c(F)c3F)nn2)[C@@H](O)[C@@H](CO)O[C@@H]1Cc1cn(C2(C(F)(F)F)CC2)nn1` [Ex 4.1.54.], the IC50 was found to be 1.17 µM on human Gal-1 (hGal-1) and 0.03 µM on human Gal-3 (hGal-3).
Consider `COC1=C(N2CC(c3ccc(Br)c(F)c3F)NN2)C(O)=C(CO)O[C@@H]1Cn1cc(C23CCC(NC(=O)OC(C)(C)C)(CC2)CC3)nn1` (some centres unmarked) [Ex 4.2.37.], for which the IC50 at human Gal-1 (hGal-1) was found to be 11.3 µM; on human Gal-3 (hGal-3), 0.05 µM.
With `CO[C@@H]1[C@@H](n2cc(-c3ccc(Cl)c(F)c3F)nn2)[C@@H](O)[C@@H](CO)O[C@@H]1Cc1cn(C2(C)CC(F)C2)nn1` (stereo partly drawn) [Example 2.1.47.A, (2R,3R,4S,5R,6R)-4-(4-(4-chloro-2,3-difluorophenyl)-1H-1,2,3-triazol-1-yl)-6-((1-((1S,3S)-3-fluoro-1-methylcyclobutyl)-1H-1,2,3-triazol-4-yl)methyl)-2-(hydroxymethyl)-5-methoxytetrahydro-2H-pyran-3-ol], the IC50 turned out to be 1.37 µM on human Gal-1 (hGal-1) and 0.03 µM at human Gal-3 (hGal-3).
For `CO[C@@H]1[C@@H](n2cc(-c3ccc(Cl)c(F)c3F)nn2)[C@@H](O)[C@@H](CO)O[C@@H]1Cc1cn(C(C)(C)CO)nn1` [Ex 2.1.9.] the same measures were 1.67 µM and 0.04 µM.
For `CO[C@@H]1[C@@H](n2cc(-c3ccc(Cl)c(F)c3F)nn2)[C@@H](O)[C@@H](CO)O[C@@H]1Cc1cn(C2(C(F)(F)F)COC2)nn1` [Ex 2.1.58., (2R,3R,4S,5R,6R)-4-(4-(4-chloro-2,3-difluorophenyl)-1H-1,2,3-triazol-1-yl)-2-(hydroxymethyl)-5-methoxy-6-((1-(3-(trifluoromethyl)oxetan-3-yl)-1H-1,2,3-triazol-4-yl)methyl)tetrahydro-2H-pyran-3-ol [1-(1,2,3-tri-deoxy-2-methoxy-3-[4-(4-chloro-2,3-difluorophenyl)-1H-1,2,3-triazol-1-yl]-α-D-galacto-pyranose)-1-(1-(3-trifluoromethyl-3-oxetanyl)-1H-triazol-4-yl)-methane]] the same measures were 0.47 µM and 0.02 µM.
For `CO[C@@H]1[C@@H](n2cc(-c3ccc(Br)c(F)c3F)nn2)[C@@H](O)[C@@H](CO)O[C@@H]1Cc1cn(C23CC(C2)C3)nn1` [Ex 4.1.12.] the same measures were 3.92 µM and 0.04 µM.
Take `CO[C@@H]1[C@@H](n2cc(-c3ccc(C)c(F)c3F)nn2)[C@@H](O)[C@@H](CO)O[C@@H]1Cc1cn(C23CC(C)(C2)C3)nn1` [Ex 1.1.14.]: the results for the IC50 on human Gal-1 (hGal-1) and at human Gal-3 (hGal-3) were 2.61 µM and 0.04 µM, respectively.
The like results for `CO[C@@H]1[C@@H](n2cc(-c3ccc(C)c(F)c3F)nn2)[C@@H](O)[C@@H](CO)O[C@@H]1Cc1cn(C23CC(C2)C3)nn1` [Ex 1.1.12.] were, in that order, 4.15 µM and 0.05 µM.
The like results for `CO[C@@H]1[C@@H](n2cc(-c3ccc(Cl)c(F)c3F)nn2)[C@@H](O)[C@@H](CO)O[C@@H]1Cc1cn([C@@H]2CCCC2(F)F)nn1` [Example 2.1.64.A, (2R,3R,4S,5R,6R)-4-(4-(4-chloro-2,3-difluorophenyl)-1H-1,2,3-triazol-1-yl)-6-((1-((R)-2,2-difluorocyclopentyl)-1H-1,2,3-triazol-4-yl)methyl)-2-(hydroxymethyl)-5-methoxytetrahydro-2H-pyran-3-ol] were, in that order, 0.94 µM and 0.03 µM.
For `COC1=C(N2CC(c3ccc(C)c(F)c3F)NN2)C(O)=C(CO)O[C@@H]1Cn1cc(C23CCC(NC(=O)OC(C)(C)C)(CC2)CC3)nn1` (some centres unmarked) [Ex 1.2.37.] the same measures were 9.4 µM and 0.02 µM.
Turning to `CO[C@@H]1[C@@H](n2cc(-c3ccc(C#N)c(F)c3F)nn2)[C@@H](O)[C@@H](CO)O[C@@H]1Cc1cn(C2(C(F)(F)F)COC2)nn1` [Ex 5.1.58.], the IC50 was 1.91 µM on human Gal-1 (hGal-1) and 0.07 µM at human Gal-3 (hGal-3).
For the molecule `CO[C@@H]1[C@@H](n2cc(-c3ccc(Cl)c(F)c3F)nn2)[C@@H](O)[C@@H](CO)O[C@@H]1Cc1cn(C2(CF)CCC2)nn1` [Ex 2.1.40.], the results for the IC50 at human Gal-1 (hGal-1) and on human Gal-3 (hGal-3) were 1.63 µM and 0.05 µM, respectively.
Turning to `CO[C@@H]1[C@@H](n2cc(-c3ccc(F)c(F)c3F)nn2)[C@@H](O)[C@@H](CO)O[C@@H]1Cc1cn(C23CCC(N)(CC2)CC3)nn1` [Ex 3.2.39.], the results for the IC50 at human Gal-1 (hGal-1) and on human Gal-3 (hGal-3) were 0.81 µM and 0.05 µM, respectively.
For `CO[C@@H]1[C@@H](n2cc(-c3ccc(Br)c(F)c3F)nn2)[C@@H](O)[C@@H](CO)O[C@@H]1Cn1cc(C2(CO)CC2)nn1` [Ex 4.2.4.] the same measures were 4.64 µM and 0.07 µM.
For `CO[C@@H]1[C@@H](n2cc(-c3ccc(Cl)c(F)c3F)nn2)[C@@H](O)[C@@H](CO)O[C@@H]1Cc1cn([C@H]2CCC[C@H]2F)nn1` [Example 2.1.79.B, (2R,3R,4S,5R,6R)-4-(4-(4-chloro-2,3-difluorophenyl)-1H-1,2,3-triazol-1-yl)-6-((1-((1S,2R)-2-fluorocyclopentyl)-1H-1,2,3-triazol-4-yl)methyl)-2-(hydroxymethyl)-5-methoxytetrahydro-2H-pyran-3-ol] the same measures were 3.16 µM and 0.03 µM.
For `CO[C@@H]1[C@@H](n2cc(-c3ccc(Cl)c(F)c3F)nn2)[C@@H](O)[C@@H](CO)O[C@@H]1Cc1cn(C2(C(F)(F)F)CCCC2)nn1` [Ex 2.1.67.] the same measures were 1.03 µM and 0.04 µM.
